Measured values reported in patent publication US20140073634A1 (Institute For Applied Cancer Science/The University of …, priority 2012, published 2014).

Each molecule was assayed on 293T-HRE-GFP-luc cells (assay: Cell-based reporter assay for IC50 determinations (HRE-luciferase, hypoxia)). Details: 6 h, 6 hrs hypoxia (1% O2), luminescence.
In short: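 IC50s come from four-parameter logistic fits of luminescence. Compounds in 1:3 DMSO series were added to 293T-HRE-GFP-luc cells, 30 min normoxia preceding 6 hrs at 1% O2, 37° C; HRE-luciferase signal was then measured with Steadylite Plus reagent.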

SMILES	IC50
CS(=O)(=O)C1CCN(c2cc(Cn3nc(-c4nc(-c5ccc(OC(F)(F)F)cc5)no4)ccc3=O)ccn2)CC1 [Example 184, 2-{[2-(4-methanesulfonylpiperidin-1-yl)pyridin-4-yl]methyl}-6-{3-[4-(trifluoromethoxy)phenyl]-1,2,4-oxadiazol-5-yl}-2,3-dihydropyridazin-3-one]	< 100 nM
CN1CCN(c2cccc(Cn3cc(-c4nc(-c5ccc(SC(F)(F)F)cc5)no4)ccc3=O)c2)CC1 [Example 185, 1-{[3-(4-methylpiperazin-1-yl)phenyl]methyl}-5-(3-{4-[(trifluoromethyl)sulfanyl]phenyl}-oxadiazol-5-yl)-1,2-dihydropyridin-2-one]	< 100 nM
CN1CCN(c2cccc(Cn3cc(-c4noc(-c5ccc(S(C)(=O)=O)cc5)n4)ccc3=O)c2)CC1 [Example 186, 5-[5-(4-methanesulfonylphenyl)-1,2,4-oxadiazol-3-yl]-1-{[3-(4-methylpiperazin-1-yl)phenyl]methyl}-1,2-dihydropyridin-2-one]	< 100 nM
COCCOc1cccc(Cn2cc(-c3noc(-c4ccc(S(=O)(=O)C(F)(F)F)cc4)n3)ccc2=O)c1 [Example 187, 1-{[3-(2-methoxyethoxy)phenyl]methyl}-5-[5-(4-trifluoromethanesulfonylphenyl)-1,2,4-oxadiazol-3-yl]-1,2-dihydropyridin-2-one]	< 100 nM
CN1CCN(c2cccc(Cn3cc(-c4noc(-c5ccc(S(=O)(=O)C(F)(F)F)cc5)n4)ccc3=O)c2)CC1 [Example 188, 1-{[3-(4-methylpiperazin-1-yl)phenyl]methyl}-5-[5-(4-trifluoromethanesulfonylphenyl)-1,2,4-oxadiazol-3-yl]-1,2-dihydropyridin-2-one]	< 100 nM
CN1CCN(c2cccc(Cn3cc(-c4noc(-c5ccc(OC(F)F)cc5)n4)ccc3=O)c2)CC1 [Example 189, 5-{5-[4-(difluoromethoxy)phenyl]-1,2,4-oxadiazol-3-yl}-1-{[3-(4-methylpiperazin-1-yl)phenyl]methyl}-1,2-dihydropyridin-2-one]	< 100 nM
COCCOc1cccc(Cn2cc(-c3noc(-c4ccc(N5CCOC5=O)cc4)n3)ccc2=O)c1 [Example 190, 1-{[3-(2-methoxyethoxy)phenyl]methyl}-5-{5-[4-(2-oxo-1,3-oxazolidin-3-yl)phenyl]-1,2,4-oxadiazol-3-yl}-1,2-dihydropyridin-2-one]	< 100 nM
COCCOc1cccc(Cn2cc(-c3noc(-c4ccc(OC)cc4)n3)ccc2=O)c1 [Example 191, 1-{[3-(2-methoxyethoxy)phenyl]methyl}-5-[5-(4-methoxyphenyl)-1,2,4-oxadiazol-3-yl]-1,2-dihydropyridin-2-one]	< 100 nM
COCCOc1cccc(Cn2cc(-c3noc(-c4ccc(C)cc4)n3)ccc2=O)c1 [Example 192, 1-{[3-(2-methoxyethoxy)phenyl]methyl}-5-[5-(4-methylphenyl)-1,2,4-oxadiazol-3-yl]-1,2-dihydropyridin-2-one]	< 100 nM
COCCOc1cccc(Cn2cc(-c3noc(-c4ccc(C(F)(F)F)cc4)n3)ccc2=O)c1 [Example 193, 1-{[3-(2-methoxyethoxy)phenyl]methyl}-5-{5-[4-(trifluoromethyl)phenyl]-1,2,4-oxadiazol-3-yl}-1,2-dihydropyridin-2-one]	< 100 nM
COCCOc1cccc(Cn2cc(-c3noc(-c4ccc(C#N)cc4)n3)ccc2=O)c1 [Example 194, 4-[3-(1-{[3-(2-methoxyethoxy)phenyl]methyl}-6-oxo-1,6-dihydropyridin-3-yl)-1,2,4-oxadiazol-5-yl]benzonitrile]	< 100 nM
COCCOc1cccc(Cn2cc(-c3noc(-c4ccc(C(C)C)cc4)n3)ccc2=O)c1 [Example 195, 1-{[3-(2-methoxyethoxy)phenyl]methyl}-5-{5-[4-(propan-2-yl)phenyl]-1,2,4-oxadiazol-3-yl}-1,2-dihydropyridin-2-one]	< 100 nM
COCCOc1cccc(Cn2cc(-c3noc(-c4ccc(OC(C)C)cc4)n3)ccc2=O)c1 [Example 196, 1-{[3-(2-methoxyethoxy)phenyl]methyl}-5-{5-[4-(propan-2-yloxy)phenyl]-1,2,4-oxadiazol-3-yl}-1,2-dihydropyridin-2-one]	100 to 1000 nM
COCCOc1cccc(Cn2cc(-c3noc(-c4ccc(OC(F)F)cc4)n3)ccc2=O)c1 [Example 197, 5-{5-[4-(difluoromethoxy)phenyl]-1,2,4-oxadiazol-3-yl}-1-{[3-(2-methoxyethoxy)phenyl]methyl}-1,2-dihydropyridin-2-one]	< 100 nM
COCCOc1cccc(Cn2cc(-c3noc(-c4ccc(Cl)cc4)n3)ccc2=O)c1 [Example 198, 5-[5-(4-chlorophenyl)-1,2,4-oxadiazol-3-yl]-1-{[3-(2-methoxyethoxy)phenyl]methyl}-1,2-dihydropyridin-2-one]	< 100 nM
CNS(=O)(=O)c1ccc(-c2nc(-c3ccc(=O)n(Cc4cccc(OCCOC)c4)c3)no2)cc1 [Example 199, 4-[3-(1-{[3-(2-methoxyethoxy)phenyl]methyl}-6-oxo-1,6-dihydropyridin-3-yl)-1,2,4-oxadiazol-5-yl]-N-methylbenzene-1-sulfonamide]	100 to 1000 nM

SMILES	IC50
COCCOc1cccc(Cn2cc(-c3noc(-c4ccc(N5CCOCC5)cc4)n3)ccc2=O)c1 [Example 200, 1-{[3-(2-methoxyethoxy)phenyl]methyl}-5-{5-[4-(morpholin-4-yl)phenyl]-1,2,4-oxadiazol-3-yl}-1,2-dihydropyridin-2-one]	< 100 nM
COCCOc1cccc(Cn2cc(-c3noc(-c4ccc(CC#N)cc4)n3)ccc2=O)c1 [Example 201, 2-{4-[3-(1-{[3-(2-methoxyethoxy)phenyl]methyl}-6-oxo-1,6-dihydropyridin-3-yl)-1,2,4-oxadiazol-5-yl]phenyl}acetonitrile]	< 100 nM
COCCOc1cccc(Cn2cc(-c3noc(-c4ccc(S(C)(=O)=O)cc4)n3)ccc2=O)c1 [Example 202, 5-[5-(4-methanesulfonylphenyl)-1,2,4-oxadiazol-3-yl]-1-{[3-(2-methoxyethoxy)phenyl]methyl}-1,2-dihydropyridin-2-one]	100 to 1000 nM
COCCOc1cccc(Cn2cc(-c3noc(-c4ccc(OCC(F)(F)F)cc4)n3)ccc2=O)c1 [Example 203, 1-{[3-(2-methoxyethoxy)phenyl]methyl}-5-{5-[4-(2,2,2-trifluoroethoxy)phenyl]-1,2,4-oxadiazol-3-yl}-1,2-dihydropyridin-2-one]	< 100 nM
CS(=O)(=O)CCCOc1cccc(Cn2cc(-c3noc(-c4ccc(N5CCOCC5)cc4)n3)ccc2=O)c1 [Example 204, 1-{[3-(3-methanesulfonylpropoxy)phenyl]methyl}-5-{5-[4-(morpholin-4-yl)phenyl]-1,2,4-oxadiazol-3-yl}-1,2-dihydropyridin-2-one]	< 100 nM
CS(=O)(=O)CCCOc1cccc(Cn2cc(-c3noc(-c4ccc(S(C)(=O)=O)cc4)n3)ccc2=O)c1 [Example 205, 5-[5-(4-methanesulfonylphenyl)-1,2,4-oxadiazol-3-yl]-1-{[3-(3-methanesulfonylpropoxy)phenyl]methyl}-1,2-dihydropyridin-2-one]	< 100 nM
CC(C)Oc1ccc(-c2nc(-c3ccc(=O)n(Cc4cccc(OCCCS(C)(=O)=O)c4)c3)no2)cc1 [Example 206, 1-{[3-(3-methanesulfonylpropoxy)phenyl]methyl}-5-{5-[4-(propan-2-yloxy)phenyl]-1,2,4-oxadiazol-3-yl}-1,2-dihydropyridin-2-one]	< 100 nM
CS(=O)(=O)CCCOc1cccc(Cn2cc(-c3noc(-c4ccc(OC(F)F)cc4)n3)ccc2=O)c1 [Example 207]	< 100 nM
COCCOc1cccc(Cn2cc(-c3noc(-c4ccc(C(C)=O)cc4)n3)ccc2=O)c1 [Example 208, 5-[5-(4-acetylphenyl)-1,2,4-oxadiazol-3-yl]-1-{[3-(2-methoxyethoxy)phenyl]methyl}-1,2-dihydropyridin-2-one]	< 100 nM
COCCOc1cccc(Cn2cc(-c3noc(-c4ccc(C5=CCSCC5)cc4)n3)ccc2=O)c1 [Example 209, 5-{5-[4-(3,6-dihydro-2H-thiopyran-4-yl)phenyl]-1,2,4-oxadiazol-3-yl}-1-{[3-(2-methoxyethoxy)phenyl]methyl}-1,2-dihydropyridin-2-one]	< 100 nM
CC(C)c1ccc(-c2nc(-c3ccc(=O)n(Cc4cccc(OCCCS(C)(=O)=O)c4)c3)no2)cc1 [Example 210, 1-{[3-(3-methanesulfonylpropoxy)phenyl]methyl}-5-{5-[4-(propan-2-yl)phenyl]-1,2,4-oxadiazol-3-yl}-1,2-dihydropyridin-2-one]	< 100 nM
CS(=O)(=O)CCCOc1cccc(Cn2cc(-c3noc(-c4ccc(S(=O)(=O)C(F)(F)F)cc4)n3)ccc2=O)c1 [Example 211, 1-{[3-(3-methanesulfonylpropoxy)phenyl]methyl}-5-[5-(4-trifluoromethanesulfonylphenyl)-1,2,4-oxadiazol-3-yl]-1,2-dihydropyridin-2-one]	< 100 nM
COCCOc1cccc(Cn2cc(-c3noc(-c4ccc(C5=CCOCC5)cc4)n3)ccc2=O)c1 [Example 212, 5-{5-[4-(3,6-dihydro-2H-pyran-4-yl)phenyl]-1,2,4-oxadiazol-3-yl}-1-{[3-(2-methoxyethoxy)phenyl]methyl}-1,2-dihydropyridin-2-one]	< 100 nM
CC(C)(O)c1cccc(Cn2cc(-c3noc(-c4ccc(S(=O)(=O)C(F)(F)F)cc4)n3)ccc2=O)c1 [Example 213, 1-{[3-(2-hydroxypropan-2-yl)phenyl]methyl}-5-[5-(4-trifluoromethanesulfonylphenyl)-1,2,4-oxadiazol-3-yl]-1,2-dihydropyridin-2-one]	< 100 nM
CC(C)(O)c1cccc(Cn2cc(-c3noc(-c4ccc(C5CCOCC5)cc4)n3)ccc2=O)c1 [Example 214, 1-{[3-(2-hydroxypropan-2-yl)phenyl]methyl}-5-{5-[4-(oxan-4-yl)phenyl]-1,2,4-oxadiazol-3-yl}-1,2-dihydropyridin-2-one]	< 100 nM
COCCOc1cccc(Cn2cc(-c3nc(-c4ccc(C5(O)CCOCC5)cc4)no3)ccc2=O)c1 [Example 215, 5-{3-[4-(4-hydroxyoxan-4-yl)phenyl]-1,2,4-oxadiazol-5-yl}-1-{[3-(2-methoxyethoxy)phenyl]methyl}-1,2-dihydropyridin-2-one]	100 to 1000 nM
